Data on 8 compounds can be found in ChEMBL document CHEMBL1649393, “Synthesis and antimicrobial activity of thiosemicarbazides, s-triazoles and their Mannich bases bearing 3-chlorophenyl moiety” (2011).

By MIC is commonly meant the least concentration at which growth counts as inhibited. High values mean a need for much substance, low ones inhibition by little substance.

Molecules are shown by their SMILES. ≈ marks a conversion by molar mass, not a printed value.

Common to all, as to format: functional
Experiment [1] relates to Staphylococcus aureus. Description: Antimicrobial activity against Staphylococcus aureus ATCC 25923 after 18 hrs by broth microdilution method. The note with it: ATCC 25923, 18 h. (In broth dilution the organism is exposed to a series of concentrations in liquid medium.)
In another experiment the test system is Bacillus cereus. The experiment is described as follows: Antimicrobial activity against Bacillus cereus ATCC 10876 after 18 hrs by broth microdilution method. The note with it: ATCC 10876, 18 h.
The subject of a further experiment is Micrococcus luteus. Description: Antimicrobial activity against Micrococcus luteus ATCC 10240 after 18 hrs by broth microdilution method. The note with it: ATCC 10240, 18 h.
The test system of experiment [2] is Staphylococcus epidermidis. The experiment is described as follows: Antimicrobial activity against Staphylococcus epidermidis ATCC 12228 after 18 hrs by broth microdilution method. The note with it: ATCC 12228, 18 h.
The next experiment concerns Bacillus subtilis. The experiment is described as follows: Antimicrobial activity against Bacillus subtilis ATCC […] after 18 hrs by broth microdilution method.
The test system of experiment [3] is Staphylococcus aureus. The experiment is described as follows: Antimicrobial activity against Staphylococcus aureus ATCC 6538 after 18 hrs by broth microdilution method. The note with it: ATCC 6538, 18 h.

On to `O=C(NNC(=S)Nc1ccc(F)cc1)c1cccc(Cl)c1`, for which the MIC (in the experiment on Staphylococcus aureus [1]; with Bacillus cereus; against Micrococcus luteus; in experiment [2]; in the experiment with Bacillus subtilis; with Staphylococcus aureus [3]) was more than 1000 µg/mL each time.
In the case of `S=c1[nH]nc(-c2cccc(Cl)c2)n1-c1ccccc1`, the MIC against Staphylococcus aureus [1] is more than 1000 µg/mL; against Bacillus cereus it was more than 1000 µg/mL; against Micrococcus luteus, more than 1000 µg/mL; in experiment [2] it was more than 1000 µg/mL; with Bacillus subtilis, 125 µg/mL (≈ 0.434 mM); in the experiment with Staphylococcus aureus [3], more than 1000 µg/mL.
Regarding `Cc1ccc(-n2c(-c3cccc(Cl)c3)n[nH]c2=S)cc1`, the minimal inhibitory concentration (MIC) (against Staphylococcus aureus [1]; with Bacillus cereus; in the experiment on Micrococcus luteus; in experiment [2]; with Bacillus subtilis; in the experiment with Staphylococcus aureus [3]) was more than 1000 µg/mL throughout.
Regarding `COc1ccc(-n2c(-c3cccc(Cl)c3)n[nH]c2=S)cc1`, the MIC (with Staphylococcus aureus [1]; against Bacillus cereus; in the experiment on Micrococcus luteus; in experiment [2]; in the experiment on Bacillus subtilis; against Staphylococcus aureus [3]) was more than 1000 µg/mL throughout.
Regarding `S=c1[nH]nc(-c2cccc(Cl)c2)n1-c1ccccc1Br`, the MIC against Staphylococcus aureus [1] was more than 1000 µg/mL; with Bacillus cereus, 1000 µg/mL (≈ 2.73 mM); in the experiment on Micrococcus luteus, more than 1000 µg/mL; in experiment [2] it was 125 µg/mL (≈ 0.341 mM); with Bacillus subtilis, 1000 µg/mL (≈ 2.73 mM); in the experiment with Staphylococcus aureus [3], more than 1000 µg/mL.
`S=c1[nH]nc(-c2cccc(Cl)c2)n1-c1ccccc1I`: the MIC (in the experiment on Staphylococcus aureus [1]; in the experiment on Bacillus cereus; with Micrococcus luteus; in experiment [2]; in the experiment with Bacillus subtilis; in the experiment on Staphylococcus aureus [3]) was more than 1000 µg/mL throughout.
With `Fc1ccc(-n2c(-c3cccc(Cl)c3)n[nH]c2=S)cc1`, the MIC (in the experiment with Staphylococcus aureus [1]; against Bacillus cereus; in the experiment on Micrococcus luteus; in experiment [2]; with Bacillus subtilis; with Staphylococcus aureus [3]) was more than 1000 µg/mL throughout.
With `Fc1ccc(F)c(-n2c(-c3cccc(Cl)c3)n[nH]c2=S)c1`, the minimum inhibitory concentration (MIC) against Staphylococcus aureus [1] is more than 1000 µg/mL; in the experiment with Bacillus cereus it was 1000 µg/mL (≈ 3.09 mM); against Micrococcus luteus it was 1000 µg/mL (≈ 3.09 mM); in experiment [2], 250 µg/mL (≈ 0.772 mM); in the experiment with Bacillus subtilis, 1000 µg/mL (≈ 3.09 mM); against Staphylococcus aureus [3], more than 1000 µg/mL.
